Measurements published in ChEMBL document CHEMBL3885861, “Open TG-GATES”.

Species on record: Rattus norvegicus
Test: Open TG-GATES - Regimen: Daily Repeat
Type: toxicity, organism-based, Sprague-Dawley
Set-up: regimen Daily Repeat, gender Male, age 6 weeks
Conditions: in vivo, po, 150 mg/kg, route gavage, dose level Middle; for APTT / Bas / Eos / Fbg / Hb / Ht / Lym / MCH / MCHC / MCV / Mono / Neu / PT / Plat / RBC / Ret / WBC: tissue Blood
[1] = 72 h, tissue Kidney, time 3 day
[2] = 72 h, tissue Plasma, time 3 day

CN1C(=O)CCS(=O)(=O)C1c1ccc(Cl)cc1 (stereo unspecified) [CHLORMEZANONE]
TERMINAL_BW (72 h, time 3 day): 226.1 g | APTT (72 h, time 3 day): 15.7 s | Bas (72 h, time 3 day): 0% | Eos (72 h, time 3 day): 1% | Fbg (72 h, time 3 day): 296.4 mg/dL | Hb (72 h, time 3 day): 13.5 g/dL | Ht (72 h, time 3 day): 39.4% | Lym (72 h, time 3 day): 76% | MCH (72 h, time 3 day): 21.8 pg | MCHC (72 h, time 3 day): 34.1% | MCV (72 h, time 3 day): 63.8 fL | Mono (72 h, time 3 day): 2.8% | Neu (72 h, time 3 day): 19.4% | PT (72 h, time 3 day): 11.4 s | Plat (72 h, time 3 day): 123.4 x10_4/uL | RBC (72 h, time 3 day): 618 x10_4/ul | Ret (72 h, time 3 day): 6.2% | WBC (72 h, time 3 day): 86.7 x10_2/uL | KIDNEY_L [1]: 0.9 g | KIDNEY_R [1]: 0.9 g | KIDNEY_TOTAL [1]: 1.8 g | LIVER (72 h, tissue Liver, time 3 day): 13 g | A/G [2]: 0.9 | ALP [2]: 1825 IU/L | ALT [2]: 52.2 IU/L | AST [2]: 69 IU/L | BUN [2]: 15.4 mg/dL | CRE [2]: 0.2 mg/dL | Ca [2]: 11.2 mg/dL | Cl [2]: 106.6 meq/L | DBIL [2]: 0.014 mg/dL | GLC [2]: 179.6 mg/dL | IP [2]: 7.1 mg/dL | K [2]: 4.5 meq/L | LDH [2]: 74.6 IU/L | Na [2]: 143 meq/L | PL [2]: 144 mg/dL | RALB [2]: 2.8 g/dL | TBIL [2]: 0.026 mg/dL | TC [2]: 80.4 mg/dL | TG [2]: 94.6 mg/dL | TP [2]: 5.9 g/dL | gamma-GTP [2]: 1.4 IU/L | TERMINAL_BW ([…], time 7 day): 265.5 g | TERMINAL_BW ([…], time 14 day): 313.6 g | TERMINAL_BW ([…], time 28 day): 389.8 g | APTT ([…], time 7 day): 17 s | Bas ([…], time 7 day): 0% | Eos ([…], time 7 day): 0.8% | Fbg ([…], time 7 day): 302.2 mg/dL | Hb ([…], time 7 day): 13.2 g/dL | Ht ([…], time 7 day): 39.4% | Lym ([…], time 7 day): 78.2% | MCH ([…], time 7 day): 21.3 pg | MCHC ([…], time 7 day): 33.5% | MCV ([…], time 7 day): 63.4 fL | Mono ([…], time 7 day): 3% | Neu ([…], time 7 day): 18% | PT ([…], time 7 day): 11.5 s | Plat ([…], time 7 day): 129.2 x10_4/uL | RBC ([…], time 7 day): 621 x10_4/ul | Ret ([…], time 7 day): 6.4% | WBC ([…], time 7 day): 79.7 x10_2/uL | APTT ([…], time 14 day): 19.7 s | Bas ([…], time 14 day): 0% | Eos ([…], time 14 day): 0.8% | Fbg ([…], time 14 day): 306.2 mg/dL | Hb ([…], time 14 day): 14 g/dL | Ht ([…], time 14 day): 40.1% | Lym ([…], time 14 day): 80% | MCH ([…], time 14 day): 21 pg | MCHC ([…], time 14 day): 34.8% | MCV ([…], time 14 day): 60.3 fL | Mono ([…], time 14 day): 2% | Neu ([…], time 14 day): 16.2% | PT ([…], time 14 day): 11.6 s | Plat ([…], time 14 day): 118.9 x10_4/uL | RBC ([…], time 14 day): 665.2 x10_4/ul | Ret ([…], time 14 day): 4.2% | WBC ([…], time 14 day): 102.9 x10_2/uL | APTT ([…], time 28 day): 17.9 s | Bas ([…], time 28 day): 0% | Eos ([…], time 28 day): 1% | Fbg ([…], time 28 day): 281 mg/dL | Hb ([…], time 28 day): 14.5 g/dL | Ht ([…], time 28 day): 41.2%
